Laboratory results published in PubChem BioAssay (NCI).
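Each compound was tested at five concentrations against cells in 96-well plates for 48 hours. Abbreviation: GI50, concentration required for 50% inhibition of growth. TGI: concentration producing complete growth inhibition.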

Columns and labels:
Test in all cases: growth of human tumour cells (NCI), 48 h
PC-3 prostate = tested on: PC-3 prostate
SF-295 CNS = tested on: SF-295 CNS
TK-10 renal = tested on: TK-10 renal
UO-31 renal = tested on: UO-31 renal
K-562 leukemia = tested on: K-562 leukemia
NCI-H23 lung = tested on: NCI-H23 lung
OVCAR-8 ovarian = tested on: OVCAR-8 ovarian
RXF 393 renal = tested on: RXF 393 renal
SN12C renal = tested on: SN12C renal
U251 CNS = tested on: U251 CNS

Compound	GI50 (PC-3 prostate) [nM]	TGI (PC-3 prostate) [µM]	GI50 (SF-295 CNS) [nM]	TGI (SF-295 CNS) [µM]	GI50 (TK-10 renal) [µM]	TGI (TK-10 renal) [µM]	GI50 (UO-31 renal) [nM]	TGI (UO-31 renal) [µM]	GI50 (K-562 leukemia) [µM]	TGI (K-562 leukemia) [µM]	GI50 (NCI-H23 lung) [nM]	TGI (NCI-H23 lung) [µM]	GI50 (OVCAR-8 ovarian) [nM]	TGI (OVCAR-8 ovarian) [µM]	GI50 (RXF 393 renal) [µM]	TGI (RXF 393 renal) [µM]	GI50 (SN12C renal) [nM]	TGI (SN12C renal) [µM]	GI50 (U251 CNS) [nM]	TGI (U251 CNS) [µM]
CCn1cc(C(=O)N/N=C/c2ccccc2)c(=O)c2cc(F)c(N3CCNC(C)C3)c(F)c21 (configuration not stated)	1600	3.01	1830	3.35	1.71	3.24	1550	2.89	–	–	–	–	–	–	–	–	–	–	–	–
N.N.N.N.N.[Cl-].[Co+3].c1ccc(-c2nn[n-]n2)cc1	–	–	> 100000	> 100	> 100	> 100	> 100000	> 100	> 100	> 100	> 100000	> 100	> 100000	> 100	> 100	> 100	> 100000	> 100	> 100000	> 100
c1ccc(CN2CCC3(CC2)SSC2(CCN(Cc4ccccc4)CC2)S3)cc1	–	> 100	–	83.9	–	> 100	–	> 100	–	> 100	–	> 100	–	> 100	–	–	–	> 100	–	> 100
CCOC(=O)c1c2c(n(Cc3ccc(Cl)cc3Cl)c1C)-c1nc[nH]c1C(=O)C2=O	–	–	20500	92.2	20.1	41.2	12400	49.5	3.21	12.3	–	–	10500	22.2	10.2	22.7	3020	13.1	7010	19.5
C1COCCN1.C1COCCN1.NC1CCCCC1N.[Cl-].[Pt+2] (configuration not stated)	–	–	> 100000	> 100	> 100	> 100	> 100000	> 100	> 100	> 100	> 100000	> 100	> 100000	> 100	> 100	> 100	> 100000	> 100	> 100000	> 100
COC1OC(CBr)C(OC(=O)c2ccccc2)C(O)C1Br (configuration not stated)	–	–	–	> 100	–	> 100	–	–	–	> 100	–	> 100	–	> 100	–	> 100	–	> 100	–	> 100
C[C@]12CCC(=O)C=C1CC[C@@H]1C2CC[C@]2(C)Nc3c(cnn3-c3ccccc3)CC12 (some centres not stated)	–	–	–	> 10	–	> 100	–	> 100	–	> 100	–	> 100	–	> 100	–	> 100	–	–	–	> 100
O=C(NC(=O)c1cn(CCN(CCO)C(=O)NCCCCCCNC(=O)N(CCO)CCn2cc(C(=O)NC(=O)OCc3ccccc3)c(=O)[nH]c2=O)c(=O)[nH]c1=O)OCc1ccccc1	–	–	–	> 100	–	> 100	–	> 100	–	> 100	–	> 100	–	> 100	–	> 100	–	> 100	–	> 100
CCOC1=C2C(=O)OC(=O)C2C2CCCCC2=C1 (configuration not stated)	–	–	–	> 100	–	> 100	–	> 100	–	> 100	–	> 100	–	> 100	–	> 100	–	> 100	–	> 100
Cc1cc2c(C)nn(Cc3ccccc3)c2c(C(N)=O)c1C	–	–	–	> 100	–	> 100	–	> 100	–	> 100	–	> 100	–	> 100	–	–	–	> 100	–	> 100
C=CCNC(=O)N(CCCC(NC(C)=O)C(=O)NCc1ccccc1)Cc1ccccc1 (configuration not stated)	–	–	–	> 100	–	> 100	–	> 100	–	> 100	–	> 100	–	> 100	–	> 100	–	> 100	–	> 100
c1ccc(C(c2ccccc2)c2cccnc2)cc1	–	–	–	> 100	–	> 100	–	> 100	–	> 100	–	> 100	–	> 100	–	–	–	> 100	–	> 100
CN1CCN(CCOc2ccc(-c3cnc4c(-c5ccc(C(F)(F)F)cc5)cnn4c3)cc2)CC1	1430	2.86	1750	3.31	1.72	3.24	1340	2.65	–	–	1620	3.14	1750	3.46	1.55	3.07	1660	3.1	1300	2.67
C1=CC=C2NCCCCCCCNC3=CC=CC=CC3=NCCCCCCCN=C2C=C1	–	–	–	> 100	–	–	–	> 100	–	> 100	–	> 100	–	> 100	–	39.5	–	> 100	–	–
Cc1cc(C(=C2C=CC(=Nc3ccccc3)C=C2)c2ccc(Nc3ccccc3)cc2)ccc1N	–	–	385	1.35	0.359	1.11	305	1.38	–	–	382	1.69	254	0.913	0.344	1.28	310	1.48	185	0.39
CCCc1cc(=O)[nH]c(-n2nc(C)cc2C)n1	4290	> 100	1070	8.81	–	–	2400	> 100	3.4	> 100	–	–	2410	> 100	18.6	> 100	4750	> 100	1710	> 100
COC(=O)/C(=N\NC(=O)C[N+](C)(C)C)C(C(=O)OC)C(=O)C(=O)Nc1ccccc1C(N)=O (configuration not stated)	–	–	–	> 100	–	> 100	–	> 100	–	> 100	–	> 100	–	–	–	> 100	–	> 100	–	> 100
Cc1cc(Cl)ccc1Nc1nc(C(F)(F)F)ccc1C(=O)N/N=C/c1ccc(Cl)cc1	2130	9.31	–	–	1.66	7.01	1500	6.04	1.83	8.22	1850	6.48	3160	> 100	3.08	22.2	2220	9	2070	–
O=C1Nc2nc3ccccc3n2N=C2CCCC12 (configuration not stated)	–	–	–	> 100	–	> 100	–	> 100	–	> 100	–	> 100	–	> 100	–	> 100	–	> 100	–	> 100

Compound	GI50 (PC-3 prostate) [nM]	TGI (PC-3 prostate) [µM]	GI50 (SF-295 CNS) [nM]	TGI (SF-295 CNS) [µM]	GI50 (TK-10 renal) [µM]	TGI (TK-10 renal) [µM]	GI50 (UO-31 renal) [nM]	TGI (UO-31 renal) [µM]	GI50 (K-562 leukemia) [µM]	TGI (K-562 leukemia) [µM]	GI50 (NCI-H23 lung) [nM]	TGI (NCI-H23 lung) [µM]	GI50 (OVCAR-8 ovarian) [nM]	TGI (OVCAR-8 ovarian) [µM]	GI50 (RXF 393 renal) [µM]	TGI (RXF 393 renal) [µM]	GI50 (SN12C renal) [nM]	TGI (SN12C renal) [µM]	GI50 (U251 CNS) [nM]	TGI (U251 CNS) [µM]
O=c1c2ccccc2c(=O)n2n1CC=CC2	–	–	–	> 100	–	> 100	–	> 100	–	> 100	–	> 100	–	> 100	–	> 100	–	> 100	–	> 100
CC1CN(c2ccc(Cl)cc2)CC(C)OC(=O)O1 (configuration not stated)	–	–	–	> 100	–	> 100	–	> 100	–	> 100	–	> 100	–	> 100	–	> 100	–	> 100	–	> 100
COCC(O)Cn1ccnc1[N+](=O)[O-] (configuration not stated)	–	–	–	> 100	–	> 100	–	> 100	–	> 100	–	> 100	–	> 100	–	–	–	> 100	–	> 100
OCC1C(/C=C/c2ccoc2)ON2CCCC12 (configuration not stated)	–	–	–	> 100	–	> 100	–	> 100	–	–	–	> 100	–	> 100	–	> 100	–	> 100	–	> 100
O=c1cc(-c2ccccc2F)[nH]c2ccc(N3CCCC3)cc12	–	> 100	–	–	74.9	> 100	–	–	< 0.001	> 100	199	–	< 1	–	< 0.001	> 100	< 1	> 100	< 1	–
Cc1cc(NCCCCCCNc2cc(C)nc3cc(N(C)C)ccc23)c2ccc(N(C)C)cc2n1	–	–	–	> 100	–	> 100	–	> 100	–	> 100	–	> 100	–	> 100	–	> 100	–	> 100	–	> 100
O=C1C2C3C=C4c5ccccc5N(c5ccccc5)C4(C2C(=O)N1c1ccc(Cl)cc1)[C@H]1C(=O)N(c2ccc(Cl)cc2)C(=O)[C@@H]31 (some centres not stated)	–	–	–	> 100	–	> 100	–	> 100	–	> 100	–	> 100	–	> 100	–	> 100	–	> 100	–	> 100
Cc1ccc([N+](=O)[O-])cc1NC(=O)/C(=N/NC(=S)NN)C1SC(=S)NC1=O (configuration not stated)	–	–	–	> 100	–	> 100	–	> 100	–	> 100	–	> 100	–	> 100	–	> 100	–	> 100	–	> 100
CCN(CC)CCOc1ccc(CCc2cc(OC)c(OC)c(OC)c2)cc1	–	–	–	50.5	–	88.9	–	> 100	–	> 100	–	–	–	> 100	–	93.2	–	> 100	–	> 100
O=c1[nH]nc2ccccc2c1Cc1ccccc1	–	–	–	> 100	–	> 100	–	> 100	–	> 100	–	> 100	–	> 100	–	–	–	> 100	–	> 100
CCC(C)[C@H]1O[C@]2(C=C[C@@H]1C)C[C@@H]1C[C@@H](C/C=C(\C)[C@@H](OC3C[C@H](OC)C(O[C@H]4C[C@H](OC)[C@@H](O)[C@H](C)O4)[C@H](C)O3)[C@@H](C)/C=C/C=C3\CO[C@@H]4[C@H](O)C(C)=C[C@@H](C(=O)O1)[C@]34O)O2 (some centres not stated)	–	–	–	–	1.07	2.74	807	1.73	–	–	1230	4.16	1720	9.73	0.939	3.5	1650	6.95	1420	6.47
O=C(CC(=O)C1=CNc2ccccc2S1)C(=O)Nc1ccc(Cl)cc1	–	–	–	> 50	–	> 50	–	> 50	–	> 50	–	> 50	–	> 50	–	> 50	–	> 50	–	> 50
Cc1oc2c(C)c3oc(=O)cc(C)c3cc2c1CN1C(=O)C2OCCOCCOCCOCCOCCO[C@H]2C1=O (some centres not stated)	–	–	–	> 100	–	> 100	–	> 100	–	> 100	–	> 100	–	> 100	–	> 100	–	> 100	–	> 100
NC(=O)c1ccccc1Nc1ccc2nnc(-c3ccncc3)n2n1	16200	30.3	–	–	6.81	20.7	4490	17.6	11.1	60.4	15000	40.4	8070	31.5	3.77	18.1	3690	18.1	7400	20.6
COc1cccc2c1ccc1nc3cccc(C(=O)N[C@H](C)CN(C)C)c3nc12	81.9	2.13	58.6	2.58	0.0762	0.512	–	–	0.0474	4.77	92.9	0.382	52.8	9.5	0.0984	0.35	87.9	11.7	44.1	8.28
COc1ccc(/C=C/C(=O)c2ccc(O)c(CN3CCN(c4cc5c(cc4F)c(=O)c(C(=O)O)cn5C4CC4)CC3)c2)cc1	1390	> 100	2100	> 100	7.16	74.6	–	–	0.463	> 100	2330	> 100	644	> 100	1.42	60.3	–	–	387	> 100
NC(=O)c1ccc(I)c(N=O)c1	–	–	> 100000	> 100	34.9	> 100	19900	57.8	–	–	51700	> 100	25800	60.6	28.7	66	55800	> 100	18600	36.8
COC(=O)c1ccccc1OCc1cc(=O)oc2ccc(C)cc12	–	> 100	–	> 81.2	–	> 100	–	> 100	–	> 100	–	> 100	–	> 100	–	–	–	> 100	–	35.4
